{"source": "patent US20110105326A1", "about": "“Method for Enhancing the Rainfastness of Glyphosate” (BASF SE, priority 2008, published 2011)", "assay_type_in_all_cases": "in vivo", "key": {"[1]": {"tested_on": "Brachiaria decumbens (BRADE)", "test": "herbicidal action with/without simulated rainfall after treatment, Brachiaria decumbens", "settings": "Example 8, carfentrazone 30 g/ha, glyphosate 1080 g/ha, 0.5% v/v Dash in Carfentrazone and mixture", "protocol": "(§1) The enhancement of the rainfastness of glyphosate was determined via the herbicidal activity of the mixture comprising glyphosate and the respective rainfastness enhancing herbicidal component B as well as of the single herbicidal components in relation to simulated rainfall at different time intervals.\n(§2) The evaluation of the damage caused by the method and the compositions the according to the present invention and the single herbicidal components was carried out using a scale from 0 to 100%, compared to the untreated control plots. Here, 0 means no damage and 100 means complete destruction of the plants of a respective weed or crop species.\n(§3) The application was performed with a fixed spayer system with air pressurization and with a tank spray volume of two liters. The speed of the spray device over the plants was adjusted for a spray volume of 200 I/ha. The spray device was a spray barr with four nozzles from the type Teejet XR 11002VS with a space of 50 cm between each nozzle.\n(§4) The application was performed at a weed stage of 6 to 8 leaves. After the application of the formulated herbicides the leaves were washed through rain of 20 mm using a fixed rain simulator system at following time interval: 15 min, 30 min, 1, 2, 3, 4 and 6 hours after treatment."}, "Bidens pilosa (BIDPI)": {"tested_on": "Bidens pilosa (BIDPI)", "test": "herbicidal action with/without simulated rainfall after treatment, Bidens pilosa", "settings": "Example 6, carfentrazone 30 g/ha, glyphosate 1080 g/ha, 0.5% v/v Dash in Carfentrazone and mixture", "protocol": "as §1, §2, §3, §4"}, "[2]": {"tested_on": "Echinochloa colonum (ECHCO)", "test": "herbicidal action with/without simulated rainfall after treatment, Echinochloa colonum", "settings": "Example 7, carfentrazone 30 g/ha, glyphosate 1080 g/ha, 0.5% v/v Dash in Carfentrazone and mixture", "protocol": "as §1, §2, §3, §4"}, "[3]": {"settings": "simulated rainfall 15 min after treatment, 1 DAA"}, "[4]": {"settings": "simulated rainfall 15 min after treatment, 2 DAA"}, "[5]": {"settings": "simulated rainfall 15 min after treatment, 3 DAA"}, "[6]": {"settings": "simulated rainfall 15 min after treatment, 7 DAA"}, "[7]": {"settings": "simulated rainfall 30 min after treatment, 1 DAA"}, "[8]": {"settings": "simulated rainfall 30 min after treatment, 2 DAA"}, "[9]": {"settings": "simulated rainfall 30 min after treatment, 3 DAA"}, "[10]": {"settings": "simulated rainfall 2 hours after treatment, 1 DAA"}, "[11]": {"settings": "simulated rainfall 2 hours after treatment, 2 DAA"}, "[12]": {"settings": "simulated rainfall 2 hours after treatment, 3 DAA"}, "[13]": {"settings": "simulated rainfall 2 hours after treatment, 7 DAA"}, "[14]": {"settings": "simulated rainfall 6 hours after treatment, 1 DAA"}, "[15]": {"settings": "simulated rainfall 6 hours after treatment, 2 DAA"}, "[16]": {"settings": "simulated rainfall 6 hours after treatment, 3 DAA"}, "[17]": {"settings": "without simulated rainfall, 1 DAA"}, "[18]": {"settings": "without simulated rainfall, 2 DAA"}, "[19]": {"settings": "without simulated rainfall, 3 DAA"}, "[20]": {"settings": "without simulated rainfall, 7 DAA"}}}
{"smiles": "Cc1nn(-c2cc(CC(Cl)C(=O)O)c(Cl)cc2F)c(=O)n1C(F)F", "note": "(centres unmarked) [Carfentrazone, carfentrazone]", "values": [{"measurement": "herbicidal action against BRADE", "setting": "[1]; [3]", "value": 4, "unit": "%"}, {"measurement": "herbicidal action against BRADE", "setting": "[1]; [4]", "value": 10.33, "unit": "%"}, {"measurement": "herbicidal action against BRADE", "setting": "[1]; [5]", "value": 11.66, "unit": "%"}, {"measurement": "herbicidal action against BRADE", "setting": "[1]; [6]", "value": 17.33, "unit": "%"}, {"measurement": "herbicidal action against BRADE", "setting": "[1]; [7]", "value": 10.66, "unit": "%"}, {"measurement": "herbicidal action against BRADE", "setting": "[1]; [8]", "value": 19.66, "unit": "%"}, {"measurement": "herbicidal action against BRADE", "setting": "[1]; [9]", "value": 11.66, "unit": "%"}, {"measurement": "herbicidal action against BRADE", "setting": "[1]; simulated rainfall 30 min after treatment, 7 DAA", "value": 18.66, "unit": "%"}, {"measurement": "herbicidal action against BRADE", "setting": "[1]; [10]", "value": 15, "unit": "%"}, {"measurement": "herbicidal action against BRADE", "setting": "[1]; [11]", "value": 14.33, "unit": "%"}, {"measurement": "herbicidal action against BRADE", "setting": "[1]; [12]", "value": 13, "unit": "%"}, {"measurement": "herbicidal action against BRADE", "setting": "[1]; [13]", "value": 16.66, "unit": "%"}, {"measurement": "herbicidal action against BRADE", "setting": "[1]; [14]", "value": 25, "unit": "%"}, {"measurement": "herbicidal action against BRADE", "setting": "[1]; [15]", "value": 29, "unit": "%"}, {"measurement": "herbicidal action against BRADE", "setting": "[1]; [16]", "value": 27.66, "unit": "%"}, {"measurement": "herbicidal action against BRADE", "setting": "[1]; simulated rainfall 6 hours after treatment, 7 DAA", "value": 26, "unit": "%"}, {"measurement": "herbicidal action against BRADE", "setting": "[1]; [17]", "value": 3.66, "unit": "%"}, {"measurement": "herbicidal action against BRADE", "setting": "[1]; [18]", "value": 18.33, "unit": "%"}, {"measurement": "herbicidal action against BRADE", "setting": "[1]; [19]", "value": 24.33, "unit": "%"}, {"measurement": "herbicidal action against BRADE", "setting": "[1]; [20]", "value": 40.33, "unit": "%"}, {"measurement": "herbicidal action against BIDPI", "setting": "Bidens pilosa (BIDPI); [3]", "value": 51, "unit": "%"}, {"measurement": "herbicidal action against BIDPI", "setting": "Bidens pilosa (BIDPI); [4]", "value": 54.66, "unit": "%"}, {"measurement": "herbicidal action against BIDPI", "setting": "Bidens pilosa (BIDPI); [5]", "value": 53.33, "unit": "%"}, {"measurement": "herbicidal action against BIDPI", "setting": "Bidens pilosa (BIDPI); [7]", "value": 68.66, "unit": "%"}, {"measurement": "herbicidal action against BIDPI", "setting": "Bidens pilosa (BIDPI); [8]", "value": 87.66, "unit": "%"}, {"measurement": "herbicidal action against BIDPI", "setting": "Bidens pilosa (BIDPI); [9]", "value": 94.66, "unit": "%"}, {"measurement": "herbicidal action against BIDPI", "setting": "Bidens pilosa (BIDPI); [10]", "value": 69.33, "unit": "%"}, {"measurement": "herbicidal action against BIDPI", "setting": "Bidens pilosa (BIDPI); [11]", "value": 89, "unit": "%"}, {"measurement": "herbicidal action against BIDPI", "setting": "Bidens pilosa (BIDPI); [12]", "value": 92.33, "unit": "%"}, {"measurement": "herbicidal action against BIDPI", "setting": "Bidens pilosa (BIDPI); [14]", "value": 56, "unit": "%"}, {"measurement": "herbicidal action against BIDPI", "setting": "Bidens pilosa (BIDPI); [15]", "value": 86.66, "unit": "%"}, {"measurement": "herbicidal action against BIDPI", "setting": "Bidens pilosa (BIDPI); [16]", "value": 92.33, "unit": "%"}, {"measurement": "herbicidal action against BIDPI", "setting": "Bidens pilosa (BIDPI); [17]", "value": 69.66, "unit": "%"}, {"measurement": "herbicidal action against BIDPI", "setting": "Bidens pilosa (BIDPI); [18]", "value": 94.33, "unit": "%"}, {"measurement": "herbicidal action against BIDPI", "setting": "Bidens pilosa (BIDPI); [19]", "value": 99, "unit": "%"}, {"measurement": "herbicidal action against ECHCO", "setting": "[2]; [3]", "value": 9, "unit": "%"}, {"measurement": "herbicidal action against ECHCO", "setting": "[2]; [4]", "value": 33.33, "unit": "%"}, {"measurement": "herbicidal action against ECHCO", "setting": "[2]; [5]", "value": 36, "unit": "%"}, {"measurement": "herbicidal action against ECHCO", "setting": "[2]; [6]", "value": 56, "unit": "%"}, {"measurement": "herbicidal action against ECHCO", "setting": "[2]; [10]", "value": 14, "unit": "%"}, {"measurement": "herbicidal action against ECHCO", "setting": "[2]; [11]", "value": 32.22, "unit": "%"}, {"measurement": "herbicidal action against ECHCO", "setting": "[2]; [12]", "value": 37.66, "unit": "%"}, {"measurement": "herbicidal action against ECHCO", "setting": "[2]; [13]", "value": 50.33, "unit": "%"}, {"measurement": "herbicidal action against ECHCO", "setting": "[2]; [17]", "value": 14.66, "unit": "%"}, {"measurement": "herbicidal action against ECHCO", "setting": "[2]; [18]", "value": 54.66, "unit": "%"}, {"measurement": "herbicidal action against ECHCO", "setting": "[2]; [19]", "value": 76.66, "unit": "%"}, {"measurement": "herbicidal action against ECHCO", "setting": "[2]; [20]", "value": 76, "unit": "%"}]}
